The values that follow come from patent publication US7109193B2, “Tricyclic diazepines tocolytic oxytocin receptor antagonists” (Wyeth, priority 2001, dated 2006).

The target of this test is T1, human vasopressin V2 receptor subtype (Homo sapiens, UniProt P30518).
T1 construct: host or cells: CHO cells (pZeoSV vector)
Put plainly: Vasopressin binding in Chinese Hamster Ovary cell membranes expressing human vasopressin V2 subtype receptors. The conditions noted are these: 100 nM, CHO cell membranes, [3H]arginine vasopressin, values without parentheses. In short, it runs like this: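 Radioligand displacement on membranes from CHO cells stably expressing human V2 receptor, 25 to 50 μg protein/well, in 50 mM Tris-HCl pH 7.4 with MgCl2, BSA and protease inhibitors. [^3H]arginine vasopressin (8 nM working solution) incubated 60 min at room temperature; bound label measured by filtration and scintillation counting.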

T1 sequence (P30518 whole entry): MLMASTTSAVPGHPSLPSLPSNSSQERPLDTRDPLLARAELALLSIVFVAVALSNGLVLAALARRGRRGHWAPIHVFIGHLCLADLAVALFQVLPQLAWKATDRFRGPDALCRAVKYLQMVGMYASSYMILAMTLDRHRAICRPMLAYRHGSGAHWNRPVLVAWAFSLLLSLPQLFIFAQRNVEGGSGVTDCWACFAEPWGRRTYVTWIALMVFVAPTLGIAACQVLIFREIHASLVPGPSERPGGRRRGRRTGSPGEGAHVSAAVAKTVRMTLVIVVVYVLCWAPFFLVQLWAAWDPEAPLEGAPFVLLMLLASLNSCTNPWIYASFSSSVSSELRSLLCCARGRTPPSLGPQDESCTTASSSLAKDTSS

With `COc1cc(C(=O)N2Cc3ccc(C(=O)N4CCN(CCCN(C)C)CC4)n3Cc3ccccc32)ccc1-n1c(C)ccc1C` [Example 320, {4-[3-(Dimethylamino)propyl]-1-piperazinyl}{10-[4-(2,5-dimethyl-1H-pyrrol-1-yl)-3-methoxybenzoyl]-10,11-dihydro-5H-pyrrolo[2,1-c][1,4]benzodiazepin-3-yl}methanone], the inhibition at 0.1 µM is 21%.

Turning to `COc1cccc(-c2ccc(C(=O)N3Cc4ccc(C(=O)n5ccnc5)n4Cc4ccccc43)cc2C)c1` [Example 289, 1H-Imidazol-1-yl-{10-[(3′-methoxy-2-methyl[1,1′-biphenyl]-4-yl)carbonyl]-10,11-dihydro-5H-pyrrolo[2,1-c][1,4]benzodiazepin-3-yl}methanone], the inhibition at 0.1 µM is 7%.

On to `COc1cc(C(=O)N2Cc3ccc(C(=O)NCCCN(C)C)n3Cc3ccccc32)ccc1-c1ccccc1C` [Example 77, N-[3-(Dimethylamino)propyl]-10-[(2-methoxy-2′-methyl[1,1′-biphenyl]-4-yl)carbonyl]-10,11-dihydro-5H-pyrrolo[2,1-c][1,4]benzodiazepine-3-carboxamide], for which the inhibition at 0.1 µM was determined as 28%.

For the compound `COc1cc(C(=O)N2Cc3ccc(C(=O)n4ccnc4)n3Cc3ccccc32)ccc1-c1cccc2ccccc12` [Example 291, 1H-Imidazol-1-yl-{10-[3-methoxy-4-(1-naphthyl)benzoyl]-10,11-dihydro-5H-pyrrolo[2,1-c][1,4]benzodiazepin-3-yl}methanone], the inhibition at 0.1 µM stood at 5%.

Take `COc1ccccc1-c1ccc(C(=O)N2Cc3ccc(C(=O)N[C@H]4CN5CCC4CC5)n3Cc3ccccc32)cc1C` [Example 298, N-[(3R)-1-Azabicyclo[2.2.2]oct-3-yl]-10-[(2′-methoxy-2-methyl[1,1′-biphenyl]-4-yl)carbonyl]-10,11-dihydro-5H-pyrrolo[2,1-c][1,4]benzodiazepine-3-carboxamide]: the inhibition at 0.1 µM is 29%.

With `COc1ccccc1-c1ccc(C(=O)N2Cc3ccc(C(=O)n4ccnc4)n3Cc3ccccc32)cc1OC` [Example 293, {10-[(2,2′-Dimethoxy[1,1′-biphenyl]-4-yl)carbonyl]-10,11-dihydro-5H-pyrrolo[2,1-c][1,4]benzodiazepin-3-yl}(1H-imidazol-1-yl)methanone], the inhibition at 0.1 µM was found to be 3%.

For the compound `Cc1cc(C(=O)N2Cc3ccc(C(=O)n4ccnc4)n3Cc3ccccc32)ccc1-c1ccccc1C(F)(F)F` [Example 294, 1H-Imidazol-1-yl(10-{[2-methyl-2′-(trifluoromethyl)[1,1′-biphenyl]-4-yl]carbonyl}-10,11-dihydro-5H-pyrrolo[2,1-c][1,4]benzodiazepin-3-yl)methanone], the inhibition at 0.1 µM was -2%.

Regarding `COc1cc(C(=O)N2Cc3ccc(C(=O)N4CCN(C)CC4)n3Cc3ccccc32)ccc1-c1ccccc1C` [Example 53, {10-[(2-Methoxy-2′-methyl[1,1′-biphenyl]-4-yl)carbonyl]-10,11-dihydro-5H-pyrrolo[2,1-c][1,4]benzodiazepin-3-yl}(4-methyl-1-piperazinyl)methanone], the inhibition at 0.1 µM was found to be 23%.

With `COc1ccccc1-c1ccc(C(=O)N2Cc3ccc(C(=O)N4CCCN(C)CC4)n3Cc3ccccc32)cc1C` [Example 62, {10-[(2′-Methoxy-2-methyl[1,1′-biphenyl]-4-yl)carbonyl]-10,11-dihydro-5H-pyrrolo[2,1-c][1,4]benzodiazepin-3-yl}(4-methyl-1,4-diazepan-1-yl)methanone], the inhibition at 0.1 µM was 27%.

As for `COc1cccc(-c2ccc(C(=O)N3Cc4ccc(C(=O)N5CCN(C)CC5)n4Cc4ccccc43)cc2OC)c1` [Example 57, {10-[(2,3′-Dimethoxy[1,1′-biphenyl]-4-yl)carbonyl]-10,11-dihydro-5H-pyrrolo[2,1-c][1,4]benzodiazepin-3-yl}(4-methyl-1-piperazinyl)methanone], the inhibition at 0.1 µM was found to be 11%.

For `COc1cc(-c2ccccc2C)c(Cl)cc1C(=O)N1Cc2ccc(C(=O)N[C@@H]3CN4CCC3CC4)n2Cc2ccccc21` [Example 297, N-[(3S)-1-Azabicyclo[2.2.2]oct-3-yl]-10-[(6-chloro-3-methoxy-2′-methyl-[1,1′-biphenyl]-4-yl)carbonyl]-10,11-dihydro-5H-pyrrolo[2,1-c][1,4]benzodiazepine-3-carboxamide], the inhibition at 0.1 µM amounted to 13%.
